From US20250228239A1, “MOLECULES HAVING PESTICIDAL UTILITY, AND INTERMEDIATES, COMPOSITIONS, AND PROCESSES, RELATED THERETO” (priority 2024, published 2025)

Tests used:
[1] = test system: Beet Armyworm (Spodoptera exigua, LAPHEG); assay: Bioassays on Beet Armyworm (BAW), 128-well diet tray assay; format: in vivo; conditions: Spodoptera exigua; Beet Armyworm; rating class; read-out: BAW
Summary of the method: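 Second-instar larvae, one to five per well, were placed on artificial diet surface-treated with 50 μg/cm^2 compound in 90:10 acetone-water, eight wells per treatment. Trays were held 5–7 days at 25 °C, 14:10 light-dark. Percent mortality per well was averaged over eight wells.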

[2] = test system: Cabbage Looper (Trichoplusia ni, TRIPNI); assay: Bioassays on Cabbage Looper (CL), 128-well diet tray assay; format: in vivo; conditions: Trichoplusia ni; Cabbage Looper; rating class; read-out: CL
Summary of the method: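 Activity is mean percent mortality over eight wells of second-instar larvae exposed to diet treated at 50 μg/cm^2 for 5–7 days at 25° C.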

Row | Structure (SMILES) | pest or weed control at 50 µg/cm2 [1] [%] | pest or weed control at 50 µg/cm2 [2] [%]
1 | O=C(Nc1c(F)ccc(NC(=O)C(F)(F)F)c1F)c1cc(NC(=O)[C@H]2[C@H](c3ccc(F)c(C(F)(F)F)c3)C2(Cl)Cl)cc(F)c1F [F1574, 5-((1R,3R)-2,2-Dichloro-3-(4-fluoro-3-(trifluoromethyl)phenyl)cyclopropane-1-carboxamido)-N-(2,6-difluoro-3-(2,2,2-trifluoroacetamido)phenyl)-2,3-difluorobenzamide] | 50 to 100 | 50 to 100
2 | CC(=O)Nc1ccc(F)c(NC(=O)c2cc(NC(=O)[C@H]3[C@H](c4ccc(Cl)c(Cl)c4)C3(Cl)Cl)cc(F)c2F)c1F [F1575, N-(3-Acetamido-2,6-difluorophenyl)-5-((1R,3R)-2,2-dichloro-3-(3,4-dichlorophenyl)cyclopropane-1-carboxamido)-2,3-difluorobenzamide] | 50 to 100 | 50 to 100
3 | CC(=O)Nc1ccc(F)c(NC(=O)c2cc(NC(=O)[C@H]3[C@H](c4ccc(F)c(C(F)(F)F)c4)C3(Cl)Cl)cc(F)c2F)c1F [F1576, N-(3-Acetamido-2,6-difluorophenyl)-5-((1R,3R)-2,2-dichloro-3-(4-fluoro-3-(trifluoromethyl)phenyl)cyclopropane-1-carboxamido)-2,3-difluorobenzamide] | 50 to 100 | 50 to 100
4 | O=C(Nc1c(F)ccc(NC(=O)C(F)F)c1F)c1cc(NC(=O)[C@H]2[C@H](c3ccc(Cl)c(Cl)c3)C2(Cl)Cl)cc(F)c1F [F1577, 5-((1R,3R)-2,2-Dichloro-3-(3,4-dichlorophenyl)cyclopropane-1-carboxamido)-N-(3-(2,2-difluoroacetamido)-2,6-difluorophenyl)-2,3-difluorobenzamide] | 50 to 100 | 50 to 100
5 | O=C(Nc1c(F)ccc(NC(=O)C(F)(F)F)c1F)c1cc(NC(=O)[C@H]2[C@H](c3ccc(Cl)c(Cl)c3)C2(Cl)Cl)cc(F)c1F [F1578, 5-((1R,3R)-2,2-Dichloro-3-(3,4-dichlorophenyl)cyclopropane-1-carboxamido)-N-(2,6-difluoro-3-(2,2,2-trifluoroacetamido)phenyl)-2,3-difluorobenzamide] | 50 to 100 | 50 to 100
6 | O=C(Nc1cc(NC(=O)C(F)(F)F)c(F)cc1F)c1cc(NC(=O)[C@H]2[C@H](c3cc(Cl)c(Cl)c(Cl)c3)C2(Cl)Cl)cc(F)c1F [F1579, 5-((1R,3R)-2,2-Dichloro-3-(3,4,5-trichlorophenyl)cyclopropane-1-carboxamido)-N-(2,4-difluoro-5-(2,2,2-trifluoroacetamido)phenyl)-2,3-difluorobenzamide] | 50 to 100 | 50 to 100
7 | O=C(Nc1cc(NC(=O)C(F)F)c(F)cc1F)c1cc(NC(=O)[C@H]2[C@H](c3cc(Cl)c(Cl)c(Cl)c3)C2(Cl)Cl)cc(F)c1F [F1580, 5-((1R,3R)-2,2-Dichloro-3-(3,4,5-trichlorophenyl)cyclopropane-1-carboxamido)-N-(5-(2,2-difluoroacetamido)-2,4-difluorophenyl)-2,3-difluorobenzamide] | 50 to 100 | 50 to 100
8 | CC(=O)Nc1cc(NC(=O)c2cc(NC(=O)[C@H]3[C@H](c4cc(Cl)c(Cl)c(Cl)c4)C3(Cl)Cl)cc(F)c2F)c(F)cc1F [F1581, N-(5-Acetamido-2,4-difluorophenyl)-5-((1R,3R)-2,2-dichloro-3-(3,4,5-trichlorophenyl)cyclopropane-1-carboxamido)-2,3-difluorobenzamide] | 50 to 100 | 50 to 100
9 | O=C(Nc1cc(NC(=O)C(F)(F)F)c(F)cc1F)c1cc(NC(=O)[C@H]2[C@H](c3ccc(Cl)c(Cl)c3)C2(Cl)Cl)cc(F)c1F [F1582, 5-((1R,3R)-2,2-Dichloro-3-(3,4-dichlorophenyl)cyclopropane-1-carboxamido)-N-(2,4-difluoro-5-(2,2,2-trifluoroacetamido)phenyl)-2,3-difluorobenzamide] | 50 to 100 | 50 to 100
10 | O=C(Nc1cc(NC(=O)C(F)F)c(F)cc1F)c1cc(NC(=O)[C@H]2[C@H](c3ccc(Cl)c(Cl)c3)C2(Cl)Cl)cc(F)c1F [F1583, 5-((1R,3R)-2,2-Dichloro-3-(3,4-dichlorophenyl)cyclopropane-1-carboxamido)-N-(5-(2,2-difluoroacetamido)-2,4-difluorophenyl)-2,3-difluorobenzamide] | 50 to 100 | 50 to 100
11 | O=C(Nc1cc(NC(=O)C(F)(F)F)c(F)cc1F)c1cc(NC(=O)[C@H]2[C@H](c3ccc(F)c(C(F)(F)F)c3)C2(Cl)Cl)cc(F)c1F [F1584, 5-((1R,3R)-2,2-Dichloro-3-(4-fluoro-3-(trifluoromethyl)phenyl)cyclopropane-1-carboxamido)-N-(2,4-difluoro-5-(2,2,2-trifluoroacetamido)phenyl)-2,3-difluorobenzamide] | 50 to 100 | 50 to 100
12 | CC(=O)Nc1cc(NC(=O)c2cc(NC(=O)[C@H]3[C@H](c4ccc(Cl)c(Cl)c4)C3(Cl)Cl)cc(F)c2F)c(F)cc1F [F1585, N-(5-Acetamido-2,4-difluorophenyl)-5-((1R,3R)-2,2-dichloro-3-(3,4-dichlorophenyl)cyclopropane-1-carboxamido)-2,3-difluorobenzamide] | 50 to 100 | 50 to 100
13 | O=C(Nc1cc(NC(=O)C(F)F)c(F)cc1F)c1cc(NC(=O)[C@H]2[C@H](c3ccc(F)c(C(F)(F)F)c3)C2(Cl)Cl)cc(F)c1F [F1586, 5-((1R,3R)-2,2-Dichloro-3-(4-fluoro-3-(trifluoromethyl)phenyl)cyclopropane-1-carboxamido)-N-(5-(2,2-difluoroacetamido)-2,4-difluorophenyl)-2,3-difluorobenzamide] | 50 to 100 | 50 to 100
14 | CC(=O)Nc1cc(NC(=O)c2cc(NC(=O)[C@H]3[C@H](c4ccc(F)c(C(F)(F)F)c4)C3(Cl)Cl)cc(F)c2F)c(F)cc1F [F1587, N-(5-Acetamido-2,4-difluorophenyl)-5-((1R,3R)-2,2-dichloro-3-(4-fluoro-3-(trifluoromethyl)phenyl)cyclopropane-1-carboxamido)-2,3-difluorobenzamide] | 50 to 100 | 50 to 100
15 | O=C(Nc1c(F)ccc(NC(=O)C(F)(F)F)c1F)c1cc(NC(=O)[C@H]2[C@H](c3cc(Cl)c(Cl)c(Cl)c3)C2(Cl)Cl)cc(F)c1F [F1588, 5-((1R,3R)-2,2-Dichloro-3-(3,4,5-trichlorophenyl)cyclopropane-1-carboxamido)-N-(2,6-difluoro-3-(2,2,2-trifluoroacetamido)phenyl)-2,3-difluorobenzamide] | 50 to 100 | 50 to 100
16 | O=C(Nc1c(F)ccc(NC(=O)C(F)F)c1F)c1cc(NC(=O)[C@H]2[C@H](c3cc(Cl)c(Cl)c(Cl)c3)C2(Cl)Cl)cc(F)c1F [F1589, 5-((1R,3R)-2,2-Dichloro-3-(3,4,5-trichlorophenyl)cyclopropane-1-carboxamido)-N-(3-(2,2-difluoroacetamido)-2,6-difluorophenyl)-2,3-difluorobenzamide] | 50 to 100 | 50 to 100
17 | CC(=O)Nc1ccc(F)c(NC(=O)c2cc(NC(=O)[C@H]3[C@H](c4cc(Cl)c(Cl)c(Cl)c4)C3(Cl)Cl)cc(F)c2F)c1F [F1590, N-(3-Acetamido-2,6-difluorophenyl)-5-((1R,3R)-2,2-dichloro-3-(3,4,5-trichlorophenyl)cyclopropane-1-carboxamido)-2,3-difluorobenzamide] | 50 to 100 | 50 to 100
18 | N#CC1(C(=O)Nc2c(F)ccc(NC(=O)c3cc(NC(=O)[C@H]4[C@H](c5ccc(Cl)c(Cl)c5)C4(Cl)Cl)ccc3Cl)c2F)CC1 [F1609, 2-Chloro-N-(3-(1-cyanocyclopropane-1-carboxamido)-2,4-difluorophenyl)-5-((1R,3R)-2,2-dichloro-3-(3,4-dichlorophenyl)cyclopropane-1-carboxamido)benzamide] | 50 to 100 | 50 to 100
19 | O=C(Nc1ccc(F)c(NC(=O)C2CCCO2)c1F)c1cc(NC(=O)[C@H]2[C@H](c3ccc(Cl)c(Cl)c3)C2(Cl)Cl)ccc1Cl (stereo partly drawn) [F1611, N-(3-(2-Chloro-5-((1R,3R)-2,2-dichloro-3-(3,4-dichlorophenyl)cyclopropane-1-carboxamido)benzamido)-2,6-difluorophenyl)tetrahydrofuran-2-carboxamide] | 50 to 100 | 50 to 100
20 | CCOC(C)C(=O)N(C)c1c(F)ccc(NC(=O)c2cc(NC(=O)[C@H]3[C@H](c4ccc(Cl)c(Cl)c4)C3(Cl)Cl)ccc2Cl)c1F (stereo partly drawn) [F1616, 2-Chloro-5-((1R,3R)-2,2-dichloro-3-(3,4-dichlorophenyl)cyclopropane-1-carboxamido)-N-(3-(2-ethoxy-N-methylpropanamido)-2,4-difluorophenyl)benzamide] | 50 to 100 | 50 to 100
21 | Nc1c(F)ccc(NC(=O)c2cc(NC(=O)[C@H]3[C@H](c4ccc(Cl)c(C(F)(F)F)c4)C3(Cl)Cl)ccc2Cl)c1F [F1631, N-(3-Amino-2,4-difluorophenyl)-2-chloro-5-((1R,3R)-2,2-dichloro-3-(4-chloro-3-(trifluoromethyl)phenyl)cyclopropane-1-carboxamido)benzamide] | 50 to 100 | 50 to 100
22 | O=C(Nc1ccc(F)c(NC(=O)C2CCCO2)c1F)c1cc(NC(=O)[C@H]2[C@H](c3cc(Cl)c(Cl)c(Cl)c3)C2(Cl)Cl)ccc1Cl (stereo partly drawn) [F1647, N-(3-(2-Chloro-5-((1R,3R)-2,2-dichloro-3-(3,4,5-trichlorophenyl)cyclopropane-1-carboxamido)benzamido)-2,6-difluorophenyl)tetrahydrofuran-2-carboxamide] | 50 to 100 | 50 to 100
